Data from US20160106868A1, “OXYGEN FREE RADICAL DETECTION” (Progenitec Inc., priority 2014, published 2016).

Columns and labels:
mouse peritoneal PMNs = assay: ROS chemiluminescence of PMA-activated PMNs, L-012 vs. luminol; type: cell-based; conditions: 1×10^6 PMNs, 2 mM probe; for chemiluminescence emission with PMA activation: PMA (6.5 nM)
Procedure: The ROS measurements were initiated by adding 10 μl of PMA (6.5 nM) at room temperature. Chemiluminescence images 410, 420 were captured with a 5 minute acquisition time using a Kodak In Vivo FX Pro system (f/stop, 2.5; no optical filter, 4×4 binning).

[1] = tested on: hypertension-suffering eye; assay: in vivo oxidative stress imaging of mouse eyes; conditions: L-012 10 μL, 15 mg/mL topically on eyes
Procedure: Referring now to FIG. 5, subsequent studies were carried out to evaluate the feasibility of L-012 for in vivo oxidative stress imaging. L-012 (10 μL, 15 mg/mL) was topically dropped on a mouse's eyes with hypertension-suffering left eye 510 or control right eye 520. The animal was sedated and then imaged with a Kodak in vivo FX imaging system, resulting in image 500. A strong bioluminescence signal was found in the hypertension-suffering left eye 510, while control right eye 520 emitted low or no chemiluminescence.

[2] = tested on: isolated neutrophils (PMNs); assay: detection of ROS generated by isolated PMA-activated neutrophils with nanoprobes; type: cell-based; conditions: 5 mM Tempol; fluorescence signal remained constant
Procedure: A number of PMN (5×10^4 to 1×10^6) were incubated in 0.25 ml of 0.9% NaCl solution containing 10 mM phosphate buffer (pH 7.4), 6 mM KCl, and 6 mM MgCl2 in the presence of the nanoprobes (10 μl, 0.5 mg/ml). After incubation of the mixture for 3 min at 37° C., the reaction were initiated by adding 6 nM phorbol 12-myristate 13-acetate (PMA). During the incubation, chemiluminescence and fluorescence intensities were recorded continuously for 60 minutes using a microplate reader.
To verify whether the chemiluminescence signals resulted from ROS generated by activated PMNs, similar PMN-mediated chemiluminescence measurements were carried out in the presence or absence of Tempol, a superoxide dismutase mimetic/ROS neutralizer.

## Nc1c(-c2ccccc2)nc(Cl)c2c(=O)[nH][nH]c(=O)c12 [L-012, 8-amino-5-chloro-7-phenylpyridol[3,4-d]pyridazine-1,4 (2H,3H)dione]
Mouse peritoneal PMNs
  chemiluminescence emission with PMA activation: emitted chemiluminescence
Mouse peritoneal PMNs; PMA activation, 5 minute acquisition
  chemiluminescence signal intensity relative to luminol: approximately 1000 fold
[1]
  signal enhancement in hypertension-suffering eye vs control eye: ten-fold

## 1,4-phthalazinedione, 5-amino-2,3-dihydro [luminol]
Mouse peritoneal PMNs
  chemiluminescence emission with PMA activation: emitted chemiluminescence

## CC1(C)CC(O)CC(C)(C)N1[O] [Tempol]
[2]
  PMN-mediated chemiluminescence intensity in the presence of Tempol: substantially reduced
